The target of assay [1] is Proto-oncogene tyrosine-protein kinase Src (Homo sapiens, UniProt P12931). Description: Selectivity interaction (Kinase panel (Z-LYTE Assay)) EUB0001632a SRC. The following applies: at 10 µM.
For assay [2], the target named is LIM domain kinase 1 (Homo sapiens) (UniProt P53667). Description: Selectivity interaction (KinomeScan (DiscoverX)) EUB0000607a LIMK1. The following applies: at 10 µM.
Assay [3] deals with T1, cGMP-dependent protein kinase 1 (Homo sapiens) (UniProt Q13976).
T1 sequence (whole entry): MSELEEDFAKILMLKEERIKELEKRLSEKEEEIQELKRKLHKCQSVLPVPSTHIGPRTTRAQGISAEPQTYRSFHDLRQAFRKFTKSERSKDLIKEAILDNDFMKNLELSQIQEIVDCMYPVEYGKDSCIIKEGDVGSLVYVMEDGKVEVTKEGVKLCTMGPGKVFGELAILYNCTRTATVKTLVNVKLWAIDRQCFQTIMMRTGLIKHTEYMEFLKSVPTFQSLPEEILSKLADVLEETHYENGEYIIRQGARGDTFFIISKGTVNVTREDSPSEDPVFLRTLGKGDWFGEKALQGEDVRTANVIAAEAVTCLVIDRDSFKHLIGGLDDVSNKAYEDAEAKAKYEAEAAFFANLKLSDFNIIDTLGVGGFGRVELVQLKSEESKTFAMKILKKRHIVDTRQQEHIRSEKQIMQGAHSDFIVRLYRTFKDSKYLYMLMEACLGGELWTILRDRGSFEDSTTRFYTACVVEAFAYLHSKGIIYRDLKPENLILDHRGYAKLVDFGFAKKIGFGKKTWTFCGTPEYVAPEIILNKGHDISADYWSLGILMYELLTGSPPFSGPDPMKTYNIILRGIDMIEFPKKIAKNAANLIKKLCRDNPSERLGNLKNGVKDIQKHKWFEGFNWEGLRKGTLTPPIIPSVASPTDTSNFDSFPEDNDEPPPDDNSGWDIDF
Description: Selectivity interaction (KinomeScan (DiscoverX)) EUB0000666a PRKG1. The note with it: at 10 µM.

Assay [4] deals with T2, STE20-related kinase adapter protein alpha (Homo sapiens) (UniProt Q7RTN6).
T2 sequence (whole entry): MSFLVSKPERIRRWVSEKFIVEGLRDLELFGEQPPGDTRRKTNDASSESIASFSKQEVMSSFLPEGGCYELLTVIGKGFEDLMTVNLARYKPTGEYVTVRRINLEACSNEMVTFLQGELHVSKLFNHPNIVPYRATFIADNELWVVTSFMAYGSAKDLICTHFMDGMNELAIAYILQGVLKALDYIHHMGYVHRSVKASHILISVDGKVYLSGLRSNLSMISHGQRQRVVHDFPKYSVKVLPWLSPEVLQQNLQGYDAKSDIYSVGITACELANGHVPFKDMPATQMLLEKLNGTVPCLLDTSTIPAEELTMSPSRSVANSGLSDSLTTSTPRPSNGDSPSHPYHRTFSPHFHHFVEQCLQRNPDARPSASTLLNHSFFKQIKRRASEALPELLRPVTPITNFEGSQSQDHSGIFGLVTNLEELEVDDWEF
Put plainly: Selectivity interaction (ActivX KiNativ screen (kinase selectivity in THP-1 cell lysates)) EUB0000639a STRADA. The format is subcellular. The note with it: lysate, at 5 µM.

Another assay deals with D(2) dopamine receptor (Homo sapiens, UniProt P14416). Description: Selectivity interaction (Panel of kinases, GPCRs, ion channels and transporters (enzymatic assay)) EUB0000223bCl DRD2.
The target in assay [5] is T3, Non-receptor tyrosine-protein kinase TNK1 (Homo sapiens) (UniProt Q13470).
T3 sequence (whole entry): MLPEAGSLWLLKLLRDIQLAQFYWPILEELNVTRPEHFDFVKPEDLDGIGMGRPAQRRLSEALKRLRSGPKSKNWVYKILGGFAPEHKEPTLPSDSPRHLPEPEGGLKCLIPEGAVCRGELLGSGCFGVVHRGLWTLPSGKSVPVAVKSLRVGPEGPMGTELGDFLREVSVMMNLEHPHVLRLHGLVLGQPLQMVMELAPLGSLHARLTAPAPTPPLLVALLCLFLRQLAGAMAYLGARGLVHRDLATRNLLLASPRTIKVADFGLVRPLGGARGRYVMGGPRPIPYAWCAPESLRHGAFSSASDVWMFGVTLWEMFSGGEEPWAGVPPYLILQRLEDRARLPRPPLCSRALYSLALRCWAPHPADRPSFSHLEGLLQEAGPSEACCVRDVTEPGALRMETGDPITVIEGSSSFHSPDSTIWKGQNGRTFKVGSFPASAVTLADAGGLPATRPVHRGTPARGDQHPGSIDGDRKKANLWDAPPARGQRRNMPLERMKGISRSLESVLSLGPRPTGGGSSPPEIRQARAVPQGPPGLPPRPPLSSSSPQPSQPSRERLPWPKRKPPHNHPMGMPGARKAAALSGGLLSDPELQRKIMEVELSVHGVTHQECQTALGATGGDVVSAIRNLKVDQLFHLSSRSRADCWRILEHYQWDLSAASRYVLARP
Put plainly: Selectivity interaction (KinomeScan (DiscoverX)) EUB0000092b TNK1. The note with it: at 10 µM.

The target in assay [6] is Myosin light chain kinase, smooth muscle (Homo sapiens, UniProt Q15746). Description: Selectivity interaction (KinomeScan (DiscoverX)) EUB0000092b MYLK. The note with it: at 10 µM.
Assay [7] concerns the target T4, Mitogen-activated protein kinase 15 (Homo sapiens) (UniProt Q8TD08).
T4 sequence (whole entry): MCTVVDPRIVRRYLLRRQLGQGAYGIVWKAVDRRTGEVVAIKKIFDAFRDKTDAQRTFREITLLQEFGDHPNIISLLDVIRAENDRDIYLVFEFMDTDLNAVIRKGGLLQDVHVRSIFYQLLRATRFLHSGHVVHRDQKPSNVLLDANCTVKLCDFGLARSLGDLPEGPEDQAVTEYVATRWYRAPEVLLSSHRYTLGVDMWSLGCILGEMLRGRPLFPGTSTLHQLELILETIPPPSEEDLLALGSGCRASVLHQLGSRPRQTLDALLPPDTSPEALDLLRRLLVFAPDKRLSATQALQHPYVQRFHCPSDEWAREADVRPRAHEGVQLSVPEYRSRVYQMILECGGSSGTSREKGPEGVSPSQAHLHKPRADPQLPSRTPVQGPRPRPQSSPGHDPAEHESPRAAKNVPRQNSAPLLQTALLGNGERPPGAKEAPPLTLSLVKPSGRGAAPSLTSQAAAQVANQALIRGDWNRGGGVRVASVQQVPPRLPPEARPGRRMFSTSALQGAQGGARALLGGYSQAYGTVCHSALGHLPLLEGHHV
Put plainly: Selectivity interaction (KinomeScan (DiscoverX)) EUB0000045b MAPK15.

Molecules are shown by their SMILES.

Sequence of Proto-oncogene tyrosine-protein kinase Src (P12931 2-536 limits assumed): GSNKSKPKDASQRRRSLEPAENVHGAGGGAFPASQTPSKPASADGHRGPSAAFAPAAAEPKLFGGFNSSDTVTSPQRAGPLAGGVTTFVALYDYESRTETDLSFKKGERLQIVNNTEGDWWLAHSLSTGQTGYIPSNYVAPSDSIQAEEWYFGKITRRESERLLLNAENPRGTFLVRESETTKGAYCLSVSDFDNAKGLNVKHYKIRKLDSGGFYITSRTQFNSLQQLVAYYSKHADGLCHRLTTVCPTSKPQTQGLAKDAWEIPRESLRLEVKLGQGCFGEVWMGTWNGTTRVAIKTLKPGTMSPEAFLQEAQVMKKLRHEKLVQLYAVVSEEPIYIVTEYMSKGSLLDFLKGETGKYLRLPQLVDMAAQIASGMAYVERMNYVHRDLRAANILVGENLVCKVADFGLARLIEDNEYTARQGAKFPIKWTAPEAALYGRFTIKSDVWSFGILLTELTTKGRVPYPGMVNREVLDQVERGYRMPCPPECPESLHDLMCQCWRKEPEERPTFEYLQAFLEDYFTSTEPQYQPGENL
Sequence of LIM domain kinase 1 (Homo sapiens) (P53667 whole entry, looked up, the tested form may be a part): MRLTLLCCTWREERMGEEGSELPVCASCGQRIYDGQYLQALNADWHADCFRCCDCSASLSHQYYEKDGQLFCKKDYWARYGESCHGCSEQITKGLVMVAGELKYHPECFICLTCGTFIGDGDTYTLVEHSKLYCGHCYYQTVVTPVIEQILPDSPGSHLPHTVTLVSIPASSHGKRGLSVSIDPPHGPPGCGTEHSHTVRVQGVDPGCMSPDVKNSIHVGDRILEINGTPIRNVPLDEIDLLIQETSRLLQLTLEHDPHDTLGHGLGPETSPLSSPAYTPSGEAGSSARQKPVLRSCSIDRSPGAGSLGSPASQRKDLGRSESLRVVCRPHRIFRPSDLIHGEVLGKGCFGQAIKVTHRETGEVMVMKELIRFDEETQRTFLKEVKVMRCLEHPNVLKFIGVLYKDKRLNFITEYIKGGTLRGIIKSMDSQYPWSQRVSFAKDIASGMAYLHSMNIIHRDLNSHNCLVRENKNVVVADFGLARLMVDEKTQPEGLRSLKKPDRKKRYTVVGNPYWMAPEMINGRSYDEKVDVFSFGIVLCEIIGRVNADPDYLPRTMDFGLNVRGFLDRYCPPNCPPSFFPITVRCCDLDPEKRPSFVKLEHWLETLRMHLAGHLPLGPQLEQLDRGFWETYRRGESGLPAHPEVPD
Sequence of D(2) dopamine receptor (P14416 whole entry): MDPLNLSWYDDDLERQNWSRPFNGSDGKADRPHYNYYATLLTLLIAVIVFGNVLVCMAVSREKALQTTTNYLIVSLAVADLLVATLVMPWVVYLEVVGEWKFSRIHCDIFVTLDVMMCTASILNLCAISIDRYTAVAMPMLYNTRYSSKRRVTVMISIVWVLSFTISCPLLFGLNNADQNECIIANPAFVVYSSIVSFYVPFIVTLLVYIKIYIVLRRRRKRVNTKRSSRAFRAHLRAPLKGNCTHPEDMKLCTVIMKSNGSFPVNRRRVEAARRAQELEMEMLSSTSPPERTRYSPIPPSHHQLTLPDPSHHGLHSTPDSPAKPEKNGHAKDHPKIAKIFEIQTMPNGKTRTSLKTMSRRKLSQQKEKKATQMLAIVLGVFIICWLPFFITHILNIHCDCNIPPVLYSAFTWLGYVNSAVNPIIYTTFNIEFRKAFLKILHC
Sequence of Myosin light chain kinase, smooth muscle (Q15746 whole entry): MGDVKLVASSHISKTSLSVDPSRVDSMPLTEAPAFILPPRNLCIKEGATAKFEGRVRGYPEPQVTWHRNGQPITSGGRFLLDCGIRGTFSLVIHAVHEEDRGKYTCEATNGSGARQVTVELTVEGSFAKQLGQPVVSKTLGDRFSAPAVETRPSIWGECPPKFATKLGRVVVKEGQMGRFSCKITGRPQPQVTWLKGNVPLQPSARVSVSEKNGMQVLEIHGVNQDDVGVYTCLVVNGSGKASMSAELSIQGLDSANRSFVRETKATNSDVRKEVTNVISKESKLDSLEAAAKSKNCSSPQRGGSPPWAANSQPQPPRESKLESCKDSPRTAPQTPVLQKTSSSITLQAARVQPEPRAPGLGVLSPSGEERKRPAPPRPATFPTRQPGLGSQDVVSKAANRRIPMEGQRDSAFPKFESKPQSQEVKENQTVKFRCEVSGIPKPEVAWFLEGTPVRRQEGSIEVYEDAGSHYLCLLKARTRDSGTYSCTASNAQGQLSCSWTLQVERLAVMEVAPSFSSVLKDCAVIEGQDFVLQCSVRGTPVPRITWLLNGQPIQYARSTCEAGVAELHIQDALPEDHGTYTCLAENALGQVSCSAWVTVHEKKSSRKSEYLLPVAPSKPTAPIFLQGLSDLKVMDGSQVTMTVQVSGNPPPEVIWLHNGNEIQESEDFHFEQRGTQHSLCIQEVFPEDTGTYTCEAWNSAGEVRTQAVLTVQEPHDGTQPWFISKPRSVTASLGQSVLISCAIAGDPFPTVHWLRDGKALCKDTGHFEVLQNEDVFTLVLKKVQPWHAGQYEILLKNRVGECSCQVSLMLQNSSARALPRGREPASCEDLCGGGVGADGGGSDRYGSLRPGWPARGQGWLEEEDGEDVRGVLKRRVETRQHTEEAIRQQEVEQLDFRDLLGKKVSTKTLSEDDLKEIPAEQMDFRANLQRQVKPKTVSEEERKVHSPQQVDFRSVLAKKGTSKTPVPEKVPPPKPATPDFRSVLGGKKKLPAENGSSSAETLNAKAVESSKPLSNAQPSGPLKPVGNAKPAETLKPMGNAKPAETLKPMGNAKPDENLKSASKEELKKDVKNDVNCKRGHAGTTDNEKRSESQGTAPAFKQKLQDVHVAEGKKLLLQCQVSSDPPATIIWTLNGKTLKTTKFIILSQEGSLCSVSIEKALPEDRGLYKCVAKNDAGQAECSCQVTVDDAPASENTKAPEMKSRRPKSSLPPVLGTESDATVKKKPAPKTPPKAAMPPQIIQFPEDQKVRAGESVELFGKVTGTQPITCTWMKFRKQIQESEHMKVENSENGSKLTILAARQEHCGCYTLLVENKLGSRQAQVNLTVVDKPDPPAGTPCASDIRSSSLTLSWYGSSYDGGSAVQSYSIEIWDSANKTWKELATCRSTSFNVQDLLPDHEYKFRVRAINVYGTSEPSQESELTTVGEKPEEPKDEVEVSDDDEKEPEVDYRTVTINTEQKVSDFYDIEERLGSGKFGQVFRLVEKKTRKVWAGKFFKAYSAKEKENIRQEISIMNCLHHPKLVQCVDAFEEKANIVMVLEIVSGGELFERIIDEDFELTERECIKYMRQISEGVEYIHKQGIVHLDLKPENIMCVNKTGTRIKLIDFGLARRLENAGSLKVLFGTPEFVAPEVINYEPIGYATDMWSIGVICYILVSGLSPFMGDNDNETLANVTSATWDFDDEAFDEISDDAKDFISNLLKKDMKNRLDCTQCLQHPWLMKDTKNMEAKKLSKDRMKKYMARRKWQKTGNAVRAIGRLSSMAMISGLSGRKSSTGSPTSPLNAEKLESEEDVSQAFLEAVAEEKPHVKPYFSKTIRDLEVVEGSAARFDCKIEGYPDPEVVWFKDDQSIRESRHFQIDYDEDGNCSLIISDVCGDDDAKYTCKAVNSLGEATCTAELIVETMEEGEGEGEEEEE

On to `Cn1cc(-n2cnc3c(NCc4nc5cc(Cl)c(Cl)cc5[nH]4)nc(N4CCOCC4)nc32)cn1`, for which the % of control in assay [1] came out at 6.05%.

In assay [2], `CNC(=O)Nc1ccc(-c2nc(N3CC4CCC(C3)O4)c3cnn(C4CCC5(CC4)OCCO5)c3n2)cc1` displayed a % of control of 95%.

As to `O=C(NOC[C@H](O)CO)c1ccc(F)c(F)c1Nc1ccc(I)cc1F`, the % of control in assay [3] is 100%.

Turning to `CC[C@@H]1[C@H](F)C(=O)N[C@@H]1COc1nccc2cc(C(N)=O)c(OC)cc12` [ZIMLOVISERTIB], the % of inhibition in assay [4] was -29.5%.

`COc1cc(C(=O)N2CC[C@@H](O)[C@@H](N)C2)cc2nc(-c3cc4ccccc4n3CC3CC3)n(C)c12` registered a pXC50 on D(2) dopamine receptor of 4.6 M.

In the case of `CCC(=O)N1CCN(c2ccc(-n3c(=O)ccc4cnc5ccc(-c6cnc7ccccc7c6)cc5c43)cc2C(F)(F)F)CC1`, the % of control in assay [5] worked out at 6.8%; in assay [6] it was 94%.

For `C=CC(=O)Nc1cc(-n2c(=O)ccc3cnc4ccc(-c5ccc(NS(C)(=O)=O)cc5)cc4c32)ccc1C`, the % of control in assay [7] (at 1 µM) and in assay [7] (at 10 µM) was 100% each time.

These data come from ChEMBL document CHEMBL5465560, “Selectivity Literature for EUbOPEN Chemogenomic Library” (2024).
